# Measurements reported in patent publication EP0251126B1, “1,7-substituted heptyne-2-ones” (priority 1986, dated 1988).
# Columns and labels:
# [1] = molecular target: postsynaptic muscarinic cholinergic receptors on intestinal (ileal) longitudinal smooth muscle (Cavia porcellus, UniProt Q8VH26); format: biochemical, guinea-pigs; conditions: guinea pig ileum longitudinal muscle, carbachol as agonist
# Description: The cavity is opened and the small intestine is removed, with about 10 cm of the terminal ileum being discarded. […] The segments are preferentially taken from the aboral end of the ileum.
# The preparations are allowed to recover for an additional 12 minutes before being used in experiments.
# (§1) Serial dilutions (1:10) in saline or water are made from the stock solution.
# (§2) Serial dilutions (1:10) in saline or water are made from the stock solution. […] Serial dilutions (1:10) in water are made from the stock solution. Other solvents may be used when appropriate and will be specifically described in the experimental procedure. Appropriate volumes are then added to the baths in order to obtain the desired bath concentrations.
# (§3) With each concentration step, the tissue contracts isometrically. The next concentration is added only after the preceding contraction has reached a steady value.
# Three or four different concentrations of antagonist are studied in the same preparations. Responses are expressed relative to the maximum contraction elicited by carbachol in the absence of antagonist.
# [2] = molecular target: postsynaptic muscarinic cholinergic receptors on bladder detrusor muscle (Cavia porcellus, UniProt Q8VH26); format: biochemical, guinea-pigs; conditions: guinea pig bladder strips, carbachol as agonist
# Description: as §1, §2, §3
# Three or four different concentrations of antagonist are studied in the same preparations.
# [3] = test system: bladder contraction strength (PvesP); format: in vivo, Guinea pigs; conditions: T-1/2 of the compound compared with T-1/2 of oxybutynin
# Description: To assess test compounds with a more intact model system, a method which more closely mimics the natural slow filling of the bladder is used.
# This clinical CMG is produced by catheterizing the bladder so it may be filled, emptied and refilled with fluid while simultaneously measuring the internal bladder pressure (Pves). […] This allows the bladder to reach maximum capacity/pressure before sensory systems initiate the normal urge and micturition reflex patterns. We use a modification of this clinical test to determine duration of action of test compounds by repeated filling of the bladder following i.v. administration of the test compound. Peak pressure above the threshold pressure is the primary measure of action which can be inhibited by the test compounds and can be used to determine potency and duration of action in this anesthetized Guinea pig model. […]
# Test drugs and reference compounds are normally prepared as a solution in normal saline, acidified or made basic as needed to get the compound into solution at the desired concentration. Drugs are delivered at selected mg/kg (calculated as free base) doses i.v. in a volume of approximately 0.5 to 0.8 ml. […]
# postsynaptic muscarinic cholinergic receptors on bladder detrusor muscle, sequence (Q8VH26 entry or part of it): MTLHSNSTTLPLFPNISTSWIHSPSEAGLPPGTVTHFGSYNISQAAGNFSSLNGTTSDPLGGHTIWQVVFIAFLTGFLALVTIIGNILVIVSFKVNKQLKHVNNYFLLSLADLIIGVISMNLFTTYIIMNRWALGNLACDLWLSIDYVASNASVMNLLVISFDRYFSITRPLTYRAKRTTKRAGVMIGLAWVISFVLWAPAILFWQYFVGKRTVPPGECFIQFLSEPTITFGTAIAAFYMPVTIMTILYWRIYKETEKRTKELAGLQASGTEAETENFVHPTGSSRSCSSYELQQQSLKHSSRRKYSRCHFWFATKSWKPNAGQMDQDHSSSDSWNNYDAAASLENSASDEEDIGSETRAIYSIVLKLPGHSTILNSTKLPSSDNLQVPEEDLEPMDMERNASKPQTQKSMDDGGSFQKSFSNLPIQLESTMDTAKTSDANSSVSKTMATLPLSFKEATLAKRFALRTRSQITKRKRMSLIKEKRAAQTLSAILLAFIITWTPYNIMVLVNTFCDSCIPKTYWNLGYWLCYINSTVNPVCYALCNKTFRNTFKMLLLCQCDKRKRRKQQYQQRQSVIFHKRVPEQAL
# postsynaptic muscarinic cholinergic receptors on intestinal (ileal) longitudinal smooth muscle, sequence (Q8VH26 entry or part of it): as above
Molecule,Bladder Kb [2],Ileum Kb [1],half-lives of PvesP depression relative to oxybutynin [3],other results
"1-(6-Diethylaminohex-4-yn-2-one)-1-hydroxy-1,2,3,4-tetrahydronaphthalene N-cyclohexylsulfamate hydrate [Compound 11]",,,,Kb [1]: > 1000 nM; Kb [2]: 512 nM
"CCN(CC)CC#CCCC1(C(O)(c2ccccc2)C2CCCCC2)SCCCS1 (centres unmarked) [Compound 2, 1-Cyclohexyl-1-phenyl-1-hydroxy-7-diethylaminohept-5-yn-2-one bis (1,3-propylene)dithioketal hemioxalate]",enhance,,,
"CCN(CC)CC#CCCC(=O)C(C)(O)c1ccccc1.O=C(O)C(=O)O (centres unmarked) [Compound 7, 2-Hydroxy-2-phenyl-8-(N,N-diethylamino)oct-6-yn-3-one oxalate]",,NC 10µM,,
"CCNCC#CCCC(=O)C(O)(c1ccccc1)C1CCCCC1 (centres unmarked) [Compound 10, 1-Cyclohexyl-1-hydroxy-phenyl-7-ethylamino-hept-5-yn-2-one hemifumarate, hydrate]",,,1.78 times longer,
"CN(C)CC#CCCC(=O)C(O)(c1ccccc1)C1CCCCC1 (centres unmarked) [Compound 18, 1-Cyclohexyl-1-hydroxy-1-phenyl-7-dimethylaminohept-5-yn-2-one]",,,2.65 times longer,
"CCN(CC)CC#CCC(=O)CC1(O)CCc2ccccc21.CCN(CC)CC#CCC(=O)CC1(O)CCc2ccccc21.O.O=C(O)C(=O)O.O=C(O)C(=O)O (centres unmarked) [Compound 21, 1-(6-N,N-Diethylaminohex-4-yn-2-one)-1-hydroxyindan oxalate semihydrate]",N.E.,N.E.,,
